Experiment [1] deals with NIH3T3 cells overexpressing the human EGF receptor. Description: EGF-stimulated mitosis, flow cytometry. The class given is cell-based, mouse. As to conditions: 100 mM A10. For orientation: A flow cytometer gives signals particle by particle.
The test system of experiment [2] is HER2. Description: Receptor tyrosine kinase inhibition, HER2. The experiment is classed as cell-based. As to conditions: for IC50: read-out: HER2 IC50. A digest of the protocol:
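For ELISA, cells kept overnight in 0.5% serum were switched to serum-free medium, given compound for 2 h at 37 °C, then ligand-stimulated for 5–10 min. Lysates were captured on receptor-specific antibody plates and probed with anti-phosphotyrosine antibody. For western blots, cells in 1% FBS received ligand for 7 min at room temperature before anti-phosphotyrosine immunoblotting.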

Experiment [3] has as its system C6 cells. The experiment can be described thus: C6 SRB growth assay. The class given is cell-based, rat. Background: In SRB staining, fixed cells bind dye roughly in proportion to their protein.
The target of experiment [4] is PDGFR (Homo sapiens, UniProt P09619). The experiment can be described thus: Receptor tyrosine kinase inhibition, PDGFR. The experiment is classed as cell-based. As to conditions: read-out: PDGFR IC50. On the set-up: U1242 (PDGF-β receptor); host or cells: U1242 glioma cells (ELISA). The essentials: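 Serum-starved cells treated with test compound for 2 hr at 37° C, then receptor phosphotyrosine measured by ELISA with anti-phosphotyrosine antibody and goat anti-rabbit IgG. Western blots used 7 min ligand stimulation at room temperature, vanadate-containing lysis and anti-phosphotyrosine immunodetection with ECL.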
Sequence of PDGFR (P09619 33-1106): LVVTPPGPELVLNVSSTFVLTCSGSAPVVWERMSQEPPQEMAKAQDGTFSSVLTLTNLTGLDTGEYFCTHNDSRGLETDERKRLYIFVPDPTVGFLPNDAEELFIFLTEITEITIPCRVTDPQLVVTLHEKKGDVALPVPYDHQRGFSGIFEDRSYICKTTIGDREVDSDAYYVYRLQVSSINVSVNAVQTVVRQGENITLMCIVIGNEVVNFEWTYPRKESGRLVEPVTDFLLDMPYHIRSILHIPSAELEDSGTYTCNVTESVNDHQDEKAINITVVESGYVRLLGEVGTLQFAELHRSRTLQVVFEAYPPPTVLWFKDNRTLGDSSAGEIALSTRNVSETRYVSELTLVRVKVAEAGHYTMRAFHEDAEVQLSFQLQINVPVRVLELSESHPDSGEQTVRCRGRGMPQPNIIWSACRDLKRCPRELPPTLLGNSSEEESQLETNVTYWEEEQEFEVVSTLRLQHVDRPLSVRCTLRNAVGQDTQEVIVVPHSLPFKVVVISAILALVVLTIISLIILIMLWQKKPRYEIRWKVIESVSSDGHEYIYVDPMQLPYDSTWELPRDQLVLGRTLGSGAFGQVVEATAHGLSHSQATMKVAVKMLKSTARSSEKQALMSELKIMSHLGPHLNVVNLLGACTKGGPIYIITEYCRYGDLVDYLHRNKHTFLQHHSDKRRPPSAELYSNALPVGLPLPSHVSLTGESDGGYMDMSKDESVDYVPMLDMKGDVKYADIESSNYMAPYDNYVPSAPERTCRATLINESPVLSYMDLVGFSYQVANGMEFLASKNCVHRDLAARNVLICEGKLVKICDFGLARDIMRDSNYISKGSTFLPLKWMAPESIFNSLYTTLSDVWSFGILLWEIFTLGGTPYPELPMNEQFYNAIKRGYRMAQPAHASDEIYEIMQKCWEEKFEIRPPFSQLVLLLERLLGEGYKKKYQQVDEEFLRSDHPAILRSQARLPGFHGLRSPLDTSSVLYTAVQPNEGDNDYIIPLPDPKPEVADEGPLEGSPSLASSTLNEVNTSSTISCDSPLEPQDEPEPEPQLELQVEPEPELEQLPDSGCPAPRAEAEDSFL

Experiment [5] has as its target T1, PDGF-R (U1242) (Homo sapiens, UniProt P09619).
T1 construct: U1242 (PDGF-β receptor); host or cells: U1242 MG glioma cells
The experiment can be described thus: U1242 kinase (PDGF-R activity). The experiment is classed as cell-based. A digest of the protocol:
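For ELISA, cells were held overnight in 0.5% serum, then treated with compound for 2 h at 37 °C in serum-free medium. Lysate phosphotyrosine was detected with polyclonal anti-phosphotyrosine antibody. In western blots, cells were stimulated with ligand for 7 min at room temperature and probed with anti-phosphotyrosine (1:3000).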

The mark [6] stands for this setting: Rattus norvegicus, C6; read-out: C6 SRB IC50.
Setting [7] is: W = done in Western assay, read-out: U1242 KINASE IC50 (W).

Each structure is given as a SMILES string. Read-outs that look alike come from different tables or passages of the source.

T1 sequence (P09619 33-1106): as above

For `Cc1oncc1C(=O)Nc1ccc(C(F)(F)F)cc1` [Compound A10, 5-methylisoxazole-4 carboxylic acid-(4-trifluromethyl)-anilide], the EGF-stimulated mitosis result in experiment [1] is “not able to inhibit EGF-stimulated mitosis”. For the same compound, the “HER2 phosphorylation” value in experiment [2] is on record as “little if any effect on EGF-receptor or HER2 phosphorylation”. Also, the IC50 in experiment [3] (Rattus norvegicus, C6; PDGF-R expression ++; read-out: SRB) was 0.3 µM.
Take `N#CC(=Cc1c[nH]c2ccccc12)c1[nH]nc(N)c1C#N` [Compound D14]: in experiment [2], the “HER2 phosphorylation” value is reported as “do not effect EGF or HER2 phosphorylation” and the IC50 is greater than 50 µM. In experiment [4], the IC50 was 47 µM.
Take `O=c1c2ccccc2nc(C=Cc2ccc(O)c(O)c2)n1CCO` [Compound F10]: the IC50 was greater than 12.5 µM in experiment [3] (setting [6]) and 45 µM in experiment [5] (setting [7]).
Regarding `Cc1cc2ncc(-c3ccccc3)nc2cc1C` [Compound G13], the “HER2 phosphorylation” value in experiment [2] is recorded as “do not effect EGF or HER2 phosphorylation”. Besides, the IC50 was greater than 50 µM in experiment [2] and greater than 50 µM in experiment [3] (Rattus norvegicus, C6, read-out: C6 SRB IC50).
`COc1cc2ncc(-c3ccccc3)nc2cc1OC` [Compound G14]: in experiment [2], the “HER2 phosphorylation” value is given as “do not effect EGF or HER2 phosphorylation”. For the same compound, the IC50 in experiment [3] (setting [6]) was greater than 50 µM; in experiment [5] (setting [7]) it was 0.8 µM.
In the case of `c1ccc(-c2cnc3cc4ccccc4cc3n2)cc1` [Compound G22], the IC50 is greater than 50 µM in experiment [2]; greater than 6 µM in experiment [3] (setting [6]); 0.9 µM in experiment [5] (setting [7]); 14 µM in experiment [5] (read-out: U1242 KINASE IC50); 14 µM in experiment [4].

The record behind these values is US6331555A, “Treatment of platelet derived growth factor related disorders such as cancers” (priority 1999, dated 2001).
